One experiment concerns the target T1, human GLP-1R (Homo sapiens, UniProt P43220).
T1 construct: expressed in transfected cells; crude membranes
In words: [125I]-GLP-1 binding, SPA with WGA beads, 0.1% bacitracin. The note with it: geometric mean, read-out: hGLP1R Ki. In a few lines: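 Binding buffer was 25 mM HEPES pH 7.4 with 2.5 mM CaCl2, 1 mM MgCl2, 0.1% (w/v) bacitracin, 0.003% Tween-20 and EDTA-free protease inhibitors. Four-parameter regression gave IC50, converted to Ki (geometric mean, SEM, n independent days).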

For experiment [1], the target named is T2, human glucagon receptor (GcgR) (Homo sapiens, UniProt P47871).
T2 construct: expressed in transfected cells; host or cells: HEK293
T2 sequence (P47871 26-477): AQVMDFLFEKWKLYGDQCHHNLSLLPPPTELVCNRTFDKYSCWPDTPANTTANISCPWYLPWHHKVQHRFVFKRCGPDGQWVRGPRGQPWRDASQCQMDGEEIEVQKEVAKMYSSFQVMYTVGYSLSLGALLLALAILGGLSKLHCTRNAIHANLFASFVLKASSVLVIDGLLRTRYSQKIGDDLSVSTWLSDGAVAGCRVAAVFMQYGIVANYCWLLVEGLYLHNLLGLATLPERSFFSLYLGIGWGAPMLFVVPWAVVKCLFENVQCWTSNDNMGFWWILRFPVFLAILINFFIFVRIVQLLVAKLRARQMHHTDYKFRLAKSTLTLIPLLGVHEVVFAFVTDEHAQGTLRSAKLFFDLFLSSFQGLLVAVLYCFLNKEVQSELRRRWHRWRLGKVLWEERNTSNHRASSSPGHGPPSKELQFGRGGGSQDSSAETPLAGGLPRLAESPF
In words: cAMP functional assay (HTRF) in HEK293 cells in presence of 0.1% casein. The experiment is classed as cell-based. The note with it: HEK293 cells expressing human GcgR, geometric mean, read-out: hGcgR cAMP Rel EC50 nM (SEM, n). A general note: In TR-FRET formats the signal depends on donor and acceptor labels being close together.

Molecules are shown by their SMILES. *1 amine or outer side, *2 acyl side, *3 side chain or, on linkers, in order; H or OH if unused. Where a SMILES comes first, the peptide text is derived from it. Side-chain parts run from the residue outwards. [ ]: non-standard residue; d: D form. The star is where a group is joined. C20 diacid = O=C(O)CCCCCCCCCCCCCCCCCCC(=O)*; γGlu = O=C(O)[C@H](CCC(=O)[*:2])N[*:1]; 4Pal = N[C@@H](Cc1ccncc1)C(=O)O; αMeL = CC(C)C[C@](C)(N)C(=O)O; AEEA = NCCOCCOCC(=O)O; Aib = CC(C)(N)C(=O)O A value given as a limit tells only on which side of the number the result lay.

T1 sequence (P43220 24-463): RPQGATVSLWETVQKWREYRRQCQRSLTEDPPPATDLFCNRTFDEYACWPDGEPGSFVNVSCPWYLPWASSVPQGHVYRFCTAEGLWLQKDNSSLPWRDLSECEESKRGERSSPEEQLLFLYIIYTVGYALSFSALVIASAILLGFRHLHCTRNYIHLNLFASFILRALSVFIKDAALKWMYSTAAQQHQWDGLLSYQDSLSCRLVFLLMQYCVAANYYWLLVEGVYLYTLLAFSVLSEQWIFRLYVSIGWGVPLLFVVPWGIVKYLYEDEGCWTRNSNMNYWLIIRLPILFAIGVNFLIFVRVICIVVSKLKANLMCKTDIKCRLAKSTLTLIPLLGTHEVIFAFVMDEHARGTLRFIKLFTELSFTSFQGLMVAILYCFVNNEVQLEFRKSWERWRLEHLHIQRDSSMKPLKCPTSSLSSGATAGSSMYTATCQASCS

By Ki is commonly meant the equilibrium dissociation constant of an inhibitor or competing ligand from its target. For orientation: EC50 means the midpoint of the concentration-response curve. `CC[C@H](C)[C@H](NC(=O)[C@H](Cc1ccccc1)NC(=O)[C@@H](NC(=O)CNC(=O)[C@H](CCC(=O)O)NC(=O)C(C)(C)NC(=O)[C@@H](N)Cc1ccc(O)cc1)[C@@H](C)O)C(=O)N[C@@H](CO)C(=O)N[C@@H](CC(=O)O)C(=O)N[C@@H](Cc1ccc(O)cc1)C(=O)N[C@@H](CO)C(=O)N[C@H](C(=O)N[C@@](C)(CC(C)C)C(=O)N[C@@H](CC(C)C)C(=O)N[C@@H](CC(=O)O)C(=O)N[C@@H](CCCCN)C(=O)N[C@@H](CCCCNC(=O)COCCOCCNC(=O)COCCOCCNC(=O)CC[C@H](NC(=O)CCCCCCCCCCCCCCCCCCC(=O)O)C(=O)O)C(=O)N[C@@H](Cc1c[nH]cn1)C(=O)N[C@@H](CCC(N)=O)C(=O)NC(C)(C)C(=O)N[C@@H](CCC(=O)O)C(=O)N[C@@H](Cc1ccccc1)C(=O)N[C@H](C(=O)N[C@@H](CCC(=O)O)C(=O)N[C@@H](Cc1ccc(O)cc1)C(=O)N[C@@H](CC(C)C)C(=O)N[C@@H](CC(C)C)C(=O)N[C@@H](CCC(=O)O)C(=O)N[C@H](C(=O)NCC(=O)N1CCC[C@H]1C(=O)N[C@@H](CO)C(=O)N[C@@H](CO)C(=O)NCC(=O)N[C@@H](C)C(=O)N1CCC[C@H]1C(=O)N1CCC[C@H]1C(=O)N1CCC[C@H]1C(=O)N[C@@H](CO)C(N)=O)[C@@H](C)O)C(C)C)[C@@H](C)CC` [Example 64] (H-Y[Aib]EGTFISDYSI[αMeL]LDKK([AEEA-AEEA-γGlu-C20 diacid])HQ[Aib]EFVEYLLETGPSSGAPPPS-NH2): the Ki on human GLP-1R amounted to 477 nM. For the same compound, the EC50 in experiment [1] turned out to be 3070 nM.

Regarding `CC[C@H](C)[C@H](NC(=O)[C@H](Cc1ccccc1)NC(=O)[C@@H](NC(=O)CNC(=O)[C@H](CCC(=O)O)NC(=O)C(C)(C)NC(=O)[C@@H](N)Cc1ccc(O)cc1)[C@@H](C)O)C(=O)N[C@@H](CO)C(=O)N[C@@H](CC(=O)O)C(=O)N[C@@H](Cc1ccc(O)cc1)C(=O)N[C@@H](CO)C(=O)N[C@H](C(=O)N[C@@](C)(CC(C)C)C(=O)N[C@@H](CC(C)C)C(=O)N[C@@H](CC(=O)O)C(=O)N[C@@H](CCCCN)C(=O)N[C@@H](CCCCNC(=O)COCCOCCNC(=O)COCCOCCNC(=O)CC[C@H](NC(=O)CCCCCCCCCCCCCCCCCCC(=O)O)C(=O)O)C(=O)N[C@@H](Cc1c[nH]cn1)C(=O)N[C@@H](CCC(N)=O)C(=O)NC(C)(C)C(=O)N[C@@H](CCC(=O)O)C(=O)N[C@@H](Cc1ccccc1)C(=O)N[C@H](C(=O)N[C@@H](CCC(=O)O)C(=O)N[C@@H](Cc1ccc(O)cc1)C(=O)N[C@@H](CC(C)C)C(=O)N[C@@H](CC(C)C)C(=O)N[C@@H](CCC(=O)O)C(=O)N[C@@H](C)C(=O)NCC(=O)N1CCC[C@H]1C(=O)N[C@@H](CO)C(=O)N[C@@H](CO)C(=O)NCC(=O)N[C@@H](C)C(=O)N1CCC[C@H]1C(=O)N1CCC[C@H]1C(=O)N1CCC[C@H]1C(=O)N[C@@H](CO)C(N)=O)C(C)C)[C@@H](C)CC` [Example 65] (H-Y[Aib]EGTFISDYSI[αMeL]LDKK([AEEA-AEEA-γGlu-C20 diacid])HQ[Aib]EFVEYLLEAGPSSGAPPPS-NH2), the Ki on human GLP-1R stood at 305 nM. Besides, the EC50 in experiment [1] turned out to be 850 nM.

Consider `CC[C@H](C)[C@H](NC(=O)[C@H](Cc1ccccc1)NC(=O)[C@@H](NC(=O)CNC(=O)[C@H](CCC(=O)O)NC(=O)C(C)(C)NC(=O)[C@@H](N)Cc1ccc(O)cc1)[C@@H](C)O)C(=O)N[C@@H](CO)C(=O)N[C@@H](CC(=O)O)C(=O)N[C@@H](Cc1ccc(O)cc1)C(=O)N[C@@H](CO)C(=O)N[C@H](C(=O)N[C@@](C)(CC(C)C)C(=O)N[C@@H](CC(C)C)C(=O)N[C@@H](CC(=O)O)C(=O)N[C@@H](CCCCN)C(=O)N[C@@H](CCCCNC(=O)COCCOCCNC(=O)COCCOCCNC(=O)CC[C@H](NC(=O)CCCCCCCCCCCCCCCCCCC(=O)O)C(=O)O)C(=O)N[C@@H](Cc1c[nH]cn1)C(=O)N[C@@H](CCC(N)=O)C(=O)NC(C)(C)C(=O)N[C@@H](CC(=O)O)C(=O)N[C@@H](Cc1ccccc1)C(=O)N[C@H](C(=O)N[C@@H](CCC(=O)O)C(=O)N[C@@H](Cc1ccc(O)cc1)C(=O)N[C@@H](CC(C)C)C(=O)N[C@@H](CC(C)C)C(=O)N[C@@H](CCC(=O)O)C(=O)N[C@H](C(=O)NCC(=O)N1CCC[C@H]1C(=O)N[C@@H](CO)C(=O)N[C@@H](CO)C(=O)NCC(=O)N[C@@H](C)C(=O)N1CCC[C@H]1C(=O)N1CCC[C@H]1C(=O)N1CCC[C@H]1C(=O)N[C@@H](CO)C(N)=O)[C@@H](C)O)C(C)C)[C@@H](C)CC` [Example 66] (H-Y[Aib]EGTFISDYSI[αMeL]LDKK([AEEA-AEEA-γGlu-C20 diacid])HQ[Aib]DFVEYLLETGPSSGAPPPS-NH2), for which the inhibition constant (Ki) on human GLP-1R came out at 326 nM. Besides, the EC50 in experiment [1] was over 5000 nM.

Take `CC[C@H](C)[C@H](NC(=O)[C@H](Cc1ccccc1)NC(=O)[C@@H](NC(=O)CNC(=O)[C@H](CCC(=O)O)NC(=O)C(C)(C)NC(=O)[C@@H](N)Cc1ccc(O)cc1)[C@@H](C)O)C(=O)N[C@@H](CO)C(=O)N[C@@H](CC(=O)O)C(=O)N[C@@H](Cc1ccc(O)cc1)C(=O)N[C@@H](CO)C(=O)N[C@H](C(=O)N[C@@](C)(CC(C)C)C(=O)N[C@@H](CC(C)C)C(=O)N[C@@H](CC(=O)O)C(=O)N[C@@H](CCCCN)C(=O)N[C@@H](CCCCNC(=O)COCCOCCNC(=O)COCCOCCNC(=O)CC[C@H](NC(=O)CCCCCCCCCCCCCCCCCCC(=O)O)C(=O)O)C(=O)N[C@@H](Cc1c[nH]cn1)C(=O)N[C@@H](CCC(N)=O)C(=O)NC(C)(C)C(=O)N[C@@H](CC(=O)O)C(=O)N[C@@H](Cc1ccccc1)C(=O)N[C@H](C(=O)N[C@@H](CCC(=O)O)C(=O)N[C@@H](Cc1ccc(O)cc1)C(=O)N[C@@H](CC(C)C)C(=O)N[C@@H](CC(C)C)C(=O)N[C@@H](CCC(=O)O)C(=O)N[C@@H](C)C(=O)NCC(=O)N1CCC[C@H]1C(=O)N[C@@H](CO)C(=O)N[C@@H](CO)C(=O)NCC(=O)N[C@@H](C)C(=O)N1CCC[C@H]1C(=O)N1CCC[C@H]1C(=O)N1CCC[C@H]1C(=O)N[C@@H](CO)C(N)=O)C(C)C)[C@@H](C)CC` [Example 68] (H-Y[Aib]EGTFISDYSI[αMeL]LDKK([AEEA-AEEA-γGlu-C20 diacid])HQ[Aib]DFVEYLLEAGPSSGAPPPS-NH2): at human GLP-1R, the Ki worked out at 421 nM. Besides, the EC50 in experiment [1] was found to be 3030 nM.

Turning to `CC[C@H](C)[C@H](NC(=O)[C@H](Cc1ccccc1)NC(=O)[C@@H](NC(=O)CNC(=O)[C@H](CCC(=O)O)NC(=O)C(C)(C)NC(=O)[C@@H](N)Cc1ccc(O)cc1)[C@@H](C)O)C(=O)N[C@@H](CO)C(=O)N[C@@H](CC(=O)O)C(=O)N[C@@H](Cc1ccc(O)cc1)C(=O)N[C@@H](CO)C(=O)N[C@H](C(=O)N[C@@](C)(CC(C)C)C(=O)N[C@@H](CC(C)C)C(=O)N[C@@H](CC(=O)O)C(=O)N[C@@H](CCCCN)C(=O)N[C@@H](CCCCNC(=O)COCCOCCNC(=O)COCCOCCNC(=O)CC[C@H](NC(=O)CCCCCCCCCCCCCCCCCCC(=O)O)C(=O)O)C(=O)N[C@@H](Cc1c[nH]cn1)C(=O)N[C@@H](CCC(N)=O)C(=O)NC(C)(C)C(=O)N[C@@H](CC(=O)O)C(=O)N[C@@H](Cc1ccccc1)C(=O)N[C@H](C(=O)N[C@@H](CCC(=O)O)C(=O)N[C@@H](Cc1ccc(O)cc1)C(=O)N[C@@H](CC(C)C)C(=O)N[C@@H](CC(C)C)C(=O)N[C@@H](CCC(=O)O)C(=O)NCC(=O)NCC(=O)N1CCC[C@H]1C(=O)N[C@@H](CO)C(=O)N[C@@H](CO)C(=O)NCC(=O)N[C@@H](C)C(=O)N1CCC[C@H]1C(=O)N1CCC[C@H]1C(=O)N1CCC[C@H]1C(=O)N[C@@H](CO)C(N)=O)C(C)C)[C@@H](C)CC` [Example 69] (H-Y[Aib]EGTFISDYSI[αMeL]LDKK([AEEA-AEEA-γGlu-C20 diacid])HQ[Aib]DFVEYLLEGGPSSGAPPPS-NH2), the Ki at human GLP-1R amounted to 144 nM. Moreover, the concentration giving a half-maximal response (EC50) in experiment [1] amounted to 803 nM.

Take `CC[C@H](C)[C@H](NC(=O)[C@H](Cc1ccccc1)NC(=O)[C@@H](NC(=O)CNC(=O)[C@H](CCC(=O)O)NC(=O)C(C)(C)NC(=O)[C@@H](N)Cc1ccc(O)cc1)[C@@H](C)O)C(=O)N[C@@H](CO)C(=O)N[C@@H](CC(=O)O)C(=O)N[C@@H](Cc1ccc(O)cc1)C(=O)N[C@@H](CO)C(=O)N[C@H](C(=O)N[C@@](C)(CC(C)C)C(=O)N[C@@H](CC(C)C)C(=O)N[C@@H](CC(=O)O)C(=O)N[C@@H](CCCCN)C(=O)N[C@@H](CCCCNC(=O)COCCOCCNC(=O)COCCOCCNC(=O)CC[C@H](NC(=O)CCCCCCCCCCCCCCCCCCC(=O)O)C(=O)O)C(=O)N[C@@H](Cc1c[nH]cn1)C(=O)N[C@@H](CCC(N)=O)C(=O)NC(C)(C)C(=O)N[C@@H](CC(=O)O)C(=O)N[C@@H](Cc1ccccc1)C(=O)N[C@H](C(=O)N[C@@H](CCC(=O)O)C(=O)N[C@@H](Cc1ccncc1)C(=O)N[C@@H](CC(C)C)C(=O)N[C@@H](CC(C)C)C(=O)N[C@@H](C)C(=O)N[C@H](C(=O)NCC(=O)N1CCC[C@H]1C(=O)N[C@@H](CO)C(=O)N[C@@H](CO)C(=O)NCC(=O)N[C@@H](C)C(=O)N1CCC[C@H]1C(=O)N1CCC[C@H]1C(=O)N1CCC[C@H]1C(=O)N[C@@H](CO)C(N)=O)[C@@H](C)O)C(C)C)[C@@H](C)CC` [Example 70] (H-Y[Aib]EGTFISDYSI[αMeL]LDKK([AEEA-AEEA-γGlu-C20 diacid])HQ[Aib]DFVE[4Pal]LLATGPSSGAPPPS-NH2): the Ki on human GLP-1R amounted to 570 nM. Further, in experiment [1], the EC50 turned out to be 3560 nM.
